Source: the supplement of paper PMC10307832

Experiments:
Experiment in all cases: relative viability (nuclei count vs DMSO), 5 days (fraction); higher = more cells survive
[1] = compound: COc1ccc(-c2ccc3c(N4CCOC[C@@H]4C)nc(N4CCOC[C@@H]4C)nc3n2)cc1CO [AZD8055] + CC(=O)c1c(C)c2cnc(Nc3ccc(N4CCNCC4)cn3)nc2n(C2CCCC2)c1=O [Palbociclib] (partner 0.5 µM)
Procedure, shortened: (§1)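 Lung cancer cell lines, seeded in 1536-well plates, were treated the following day by pin tool with a single drug or with five library-drug doses (not always all listed) in √10 steps on top of a fixed anchor-drug dose. Cells were fixed and nuclei stained in one step after 5 days, and nuclei were counted. Relative viability is the nuclei count for treated wells divided by that for vehicle wells, reported as medians of duplicate plates.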

[2] = compound: COc1ccc(-c2ccc3c(N4CCOC[C@@H]4C)nc(N4CCOC[C@@H]4C)nc3n2)cc1CO [AZD8055] + CC(C)C[C@H](NC(=O)[C@H](Cc1ccccc1)NC(=O)c1cnccn1)B(O)O [Bortezomib] (partner 0.002 µM)
Procedure, shortened: as §1

[3] = compound: COc1ccc(-c2ccc3c(N4CCOC[C@@H]4C)nc(N4CCOC[C@@H]4C)nc3n2)cc1CO [AZD8055] + Cc1nc(Nc2ncc(C(=O)Nc3c(C)cccc3Cl)s2)cc(N2CCN(CCO)CC2)n1 [Dasatinib] (partner 0.075 µM)
Procedure, shortened: as §1

[4] = compound: COc1ccc(-c2ccc3c(N4CCOC[C@@H]4C)nc(N4CCOC[C@@H]4C)nc3n2)cc1CO [AZD8055] + Cc1nc(NC(=O)N2CCC[C@H]2C(N)=O)sc1-c1ccnc(C(C)(C)C(F)(F)F)c1 [Alpelisib] (partner 2 µM)
Procedure, shortened: as §1

Row | Cell Line | relative viability ([1]; first compound 0.01 µM) | relative viability ([1]; first compound 0.03162 µM) | relative viability ([1]; first compound 0.1 µM) | relative viability ([1]; first compound 0.3162 µM) | relative viability ([1]; first compound 1 µM) | relative viability ([2]; first compound 0.01 µM) | relative viability ([2]; first compound 0.03162 µM) | relative viability ([2]; first compound 0.1 µM) | relative viability ([2]; first compound 0.3162 µM) | relative viability ([2]; first compound 1 µM) | relative viability ([3]; first compound 0.01 µM) | relative viability ([3]; first compound 0.03162 µM) | relative viability ([3]; first compound 0.1 µM) | relative viability ([3]; first compound 0.3162 µM) | relative viability ([3]; first compound 1 µM) | relative viability ([4]; first compound 0.01 µM) | relative viability ([4]; first compound 0.03162 µM) | relative viability ([4]; first compound 0.1 µM) | relative viability ([4]; first compound 0.3162 µM) | relative viability ([4]; first compound 1 µM)
1 | UMC-11 | 0.341 | 0.32 | 0.299 | 0.295 | 0.288 | 0.824 | 0.662 | 0.397 | 0.215 | 0.195 | 0.521 | 0.381 | 0.302 | 0.252 | 0.224 | 1.06 | 0.737 | 0.549 | 0.232 | 0.22
2 | LC-2-ad | 0.534 | 0.471 | 0.438 | 0.388 | 0.312 | 1.08 | 1.01 | 1.08 | 0.777 | 0.537 | 0.559 | 0.683 | 0.451 | 0.221 | 0.321 | 0.841 | 0.827 | 0.697 | 0.42 | 0.402
3 | A-427 | 0.516 | 0.553 | 0.467 | 0.392 | 0.409 | 1.01 | 0.815 | 0.858 | 0.518 | 0.462 | 0.666 | 0.632 | 0.572 | 0.281 | 0.339 | 1.22 | 0.999 | 0.939 | 0.674 | 0.519
4 | NCI-H322M | 0.457 | 0.492 | 0.383 | 0.468 | 0.41 | 1.24 | 1.34 | 1.17 | 0.894 | 1.11 | 0.259 | 0.265 | 0.251 | 0.246 | 0.249 | 0.696 | 0.0834 | 0.673 | 0.433 | 0.402
5 | HCC-366 | 0.311 | 0.199 | 0.0939 | 0.0508 | 0.0399 | 1.31 | 0.863 | 0.98 | 0.337 | 0.123 | 0.719 | 0.401 | 0.241 | 0.0939 | 0.0948 | 0.479 | 0.243 | 0.169 | 0.0661 | 0.07
6 | NCI-H1975 | 0.712 | 0.388 | 0.252 | 0.151 | 0.161 | 0.409 | 0.303 | 0.282 | 0.206 | 0.216 | 0.34 | 0.265 | 0.129 | 0.132 | 0.135 | 0.454 | 0.365 | 0.259 | 0.249 | 0.231
7 | NCI-H1437 | 0.358 | 0.434 | 0.338 | 0.221 | 0.203 | 0.611 | 0.549 | 0.422 | 0.206 | 0.209 | 0.498 | 0.444 | 0.275 | 0.187 | 0.124 | 0.802 | 0.808 | 0.697 | 0.178 | 0.159
8 | NCI-H2009 | 0.227 | 0.156 | 0.203 | 0.178 | 0.149 | 1.14 | 0.649 | 0.845 | 0.35 | 0.264 | 0.301 | 0.245 | 0.232 | 0.175 | 0.184 | 1.14 | 1.03 | 0.931 | 0.583 | 0.401
